Drawing on PubChem BioAssay AID270 (DTP/NCI, 2004), this text covers T/C for 14 molecules.

The test concerns BDF1 mice, s.c. Lewis lung carcinoma, T/C %. In words: NCI In Vivo Anticancer Drug Screen. Data for tumor model Lewis Lung Carcinoma (subcutaneous) in B6D2F1 (BDF1) mice. The method in brief: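 Tumor-bearing mice were treated with test compound, and either survival or tumor size was recorded. Values are the treated-group measurement divided by that of the vehicle-treated control group.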

“And” between values parts separate entries of the source, which are not always exact repeats. Identical values can stand only once. Inconclusive results are not listed.

In the case of `CN(C)Cc1c[nH]c2ccccc12`, the T/C (endpoint: mean tumor weight, dose: 26.6 mg/kg/injection, schedule: Q01DX011 (ip), vehicle: carboxymethylcellulose (CMC), higher = larger tumour) was 94 % of control; the T/C (endpoint: mean tumor weight, dose: 40.0 mg/kg/injection, schedule: Q01DX011 (ip), vehicle: carboxymethylcellulose (CMC), higher = larger tumour) is 70 % of control; the T/C (endpoint: mean tumor weight, dose: 60.0 mg/kg/injection, schedule: Q01DX011 (ip), vehicle: carboxymethylcellulose (CMC), higher = larger tumour) is 62 % of control; the T/C (endpoint: mean tumor weight, dose: 90.0 mg/kg/injection, schedule: Q01DX011 (ip), vehicle: carboxymethylcellulose (CMC), higher = larger tumour) was 57 % of control.

Consider `O=[N+]([O-])c1ccc(CSc2ncnc3c2ncn3C2OC(CO)C(O)C2O)cc1` (centres undefined), for which the T/C was 93 % of control (endpoint: median survival time, dose: 0.3 mg/kg/injection, schedule: Q01DX010 (ip), vehicle: saline with Tween-80, higher = longer survival); 97 % of control (endpoint: median survival time, dose: 3.0 mg/kg/injection, schedule: Q01DX010 (ip), vehicle: saline with Tween-80, higher = longer survival); 106 % of control (endpoint: median survival time, dose: 30.0 mg/kg/injection, schedule: Q01DX010 (ip), vehicle: saline with Tween-80, higher = longer survival).

With `O=c1cc(CO)[nH]cc1O`, the T/C (endpoint: mean tumor weight, dose: 25.0 mg/kg/injection, schedule: Q01DX011 (ip), vehicle: methylcellulose (MC), higher = larger tumour) is 81 % of control; the T/C (endpoint: mean tumor weight, dose: 50.0 mg/kg/injection, schedule: Q01DX011 (ip), vehicle: methylcellulose (MC), higher = larger tumour) is 77 % of control; the T/C (endpoint: mean tumor weight, dose: 100.0 mg/kg/injection, schedule: Q01DX011 (ip), vehicle: methylcellulose (MC), higher = larger tumour) is 63 % of control; the T/C (endpoint: mean tumor weight, dose: 500.0 mg/kg/injection, schedule: Q01DX011 (ip), vehicle: methylcellulose (MC), higher = larger tumour) is 62 % of control; the T/C (endpoint: mean tumor weight, dose: 600.0 mg/kg/injection, schedule: Q01DX011 (ip), vehicle: methylcellulose (MC), higher = larger tumour) is 82 % of control; the T/C (endpoint: mean tumor weight, dose: 700.0 mg/kg/injection, schedule: Q01DX011 (ip), vehicle: methylcellulose (MC), higher = larger tumour) is 115 % of control.

Turning to `CC(=O)OC(C)(C)/C=C/C(=O)[C@](C)(O)[C@H]1[C@H](O)C[C@@]2(C)[C@@H]3CC=C4[C@@H](C[C@H](O)C(=O)C4(C)C)[C@]3(C)C(=O)C[C@]12C`, the T/C is, setting by setting: (endpoint: mean tumor weight, dose: 0.16 mg/kg/injection, schedule: Q01DX011 (ip), vehicle: saline, higher = larger tumour) 69 % of control; (endpoint: mean tumor weight, dose: 0.25 mg/kg/injection, schedule: Q01DX011 (ip), vehicle: saline, higher = larger tumour) 53 % of control; (endpoint: mean tumor weight, dose: 0.38 mg/kg/injection, schedule: Q01DX011 (ip), vehicle: saline, higher = larger tumour) 83 % of control; (endpoint: mean tumor weight, dose: 0.4 mg/kg/injection, schedule: Q01DX011 (ip), vehicle: carboxymethylcellulose (CMC), higher = larger tumour) 67 % of control; (endpoint: mean tumor weight, dose: 0.4 mg/kg/injection, schedule: Q01DX011 (ip), vehicle: saline, higher = larger tumour) 48 % of control; (endpoint: mean tumor weight, dose: 0.8 mg/kg/injection, schedule: Q01DX011 (ip), vehicle: saline, higher = larger tumour) 42 % of control.

As to `CCCCOP(=O)(OCCCC)c1ccccc1`, the T/C by setting is: (endpoint: mean tumor weight, dose: 104.0 mg/kg/injection, schedule: Q01DX011 (ip), vehicle: other, higher = larger tumour) 93 % of control; (endpoint: mean tumor weight, dose: 233.0 mg/kg/injection, schedule: Q01DX011 (ip), vehicle: other, higher = larger tumour) 66 % of control.

On to `Nc1nc(N)nc(N)n1`, for which the T/C (endpoint: median survival time, dose: 100.0 mg/kg/injection, schedule: Q01DX009 (ip), vehicle: saline with Tween-80, higher = longer survival) is 103 % of control; the T/C (endpoint: median survival time, dose: 200.0 mg/kg/injection, schedule: Q01DX009 (ip), vehicle: saline with Tween-80, higher = longer survival) is 95 % of control; the T/C (endpoint: median survival time, dose: 400.0 mg/kg/injection, schedule: Q01DX009 (ip), vehicle: saline with Tween-80, higher = longer survival) was 98 % of control.

For the molecule `Nc1nc2c(ncn2C2OC(CO)C(O)C2N)c(=O)[nH]1` (centres undefined), the T/C is 95 % of control (endpoint: median survival time, dose: 1.56 mg/kg/injection, schedule: Q01DX009 (ip), vehicle: saline, higher = longer survival); 99 % of control (endpoint: median survival time, dose: 3.12 mg/kg/injection, schedule: Q01DX009 (ip), vehicle: Klucel (hydroxypropylcellulose) (HPC), higher = longer survival); 91 % of control and 104 % of control (endpoint: median survival time, dose: 3.13 mg/kg/injection, schedule: Q01DX009 (ip), vehicle: saline, higher = longer survival); 102 % of control (endpoint: median survival time, dose: 6.25 mg/kg/injection, schedule: Q01DX009 (ip), vehicle: Klucel (hydroxypropylcellulose) (HPC), higher = longer survival); 97 % of control (endpoint: median survival time, dose: 6.25 mg/kg/injection, schedule: Q01DX009 (ip), vehicle: saline, higher = longer survival); 102 % of control (endpoint: median survival time, dose: 12.5 mg/kg/injection, schedule: Q01DX009 (ip), vehicle: Klucel (hydroxypropylcellulose) (HPC), higher = longer survival). Also, the T/C runs as follows: (endpoint: median survival time, dose: 12.5 mg/kg/injection, schedule: Q01DX009 (ip), vehicle: saline with Tween-80, higher = longer survival) 95 % of control; (endpoint: median survival time, dose: 12.5 mg/kg/injection, schedule: Q01DX009 (ip), vehicle: saline, higher = longer survival) 98 % of control; (endpoint: median survival time, dose: 25.0 mg/kg/injection, schedule: Q01DX009 (ip), vehicle: Klucel (hydroxypropylcellulose) (HPC), higher = longer survival) 90 % of control; (endpoint: median survival time, dose: 25.0 mg/kg/injection, schedule: Q01DX009 (ip), vehicle: saline with Tween-80, higher = longer survival) 118 % of control; (endpoint: median survival time, dose: 25.0 mg/kg/injection, schedule: Q01DX009 (ip), vehicle: saline, higher = longer survival) 94 % of control; (endpoint: median survival time, dose: 50.0 mg/kg/injection, schedule: Q01DX009 (ip), vehicle: saline with Tween-80, higher = longer survival) 110 % of control.

Take `CC1CN=C(C(=O)C(C)C2CCC3C4CC=C5CC(O)CCC5(C)C4CCC23C)C1` (centres undefined): for the setting “endpoint: mean tumor weight, dose: 100.0 mg/kg/injection, schedule: Q01DX011 (sc), vehicle: steriod suspending solution, higher = larger tumour”, the T/C is 118 % of control.

Take `CCNC1=C(N2CC2)C(=O)C(NCC)=C(N2CC2)C1=O`: the T/C reads like this: (endpoint: median survival time, dose: 0.37 mg/kg/injection, schedule: Q01DX009 (ip), vehicle: saline, higher = longer survival) 115 % of control; (endpoint: median survival time, dose: 0.75 mg/kg/injection, schedule: Q01DX009 (ip), vehicle: saline, higher = longer survival) 121 % of control.

Turning to `O=C1C2CCCCC2C(=O)N1c1nccs1` (centres undefined), the T/C is 58 % of control (endpoint: mean tumor weight, dose: 50.0 mg/kg/injection, schedule: Q01DX011 (ip), vehicle: carboxymethylcellulose (CMC), higher = larger tumour); 71 % of control (endpoint: mean tumor weight, dose: 100.0 mg/kg/injection, schedule: Q01DX011 (ip), vehicle: carboxymethylcellulose (CMC), higher = larger tumour); 84 % of control (endpoint: mean tumor weight, dose: 200.0 mg/kg/injection, schedule: Q01DX011 (ip), vehicle: carboxymethylcellulose (CMC), higher = larger tumour).

`CN1CC(=O)N=C1N`: the T/C runs as follows: (endpoint: mean tumor weight, dose: 31.3 mg/kg/injection, schedule: Q01DX011 (ip), vehicle: saline, higher = larger tumour) 116 % of control; (endpoint: mean tumor weight, dose: 62.5 mg/kg/injection, schedule: Q01DX011 (ip), vehicle: saline, higher = larger tumour) 150 % of control; (endpoint: mean tumor weight, dose: 125.0 mg/kg/injection, schedule: Q01DX011 (ip), vehicle: saline, higher = larger tumour) 119 % of control; (endpoint: mean tumor weight, dose: 250.0 mg/kg/injection, schedule: Q01DX011 (ip), vehicle: saline, higher = larger tumour) 105 % of control.

Turning to `Cc1cc(NCCCCCCNc2cc(C)nc3ccc(N)cc23)c2cc(N)ccc2n1`, the T/C runs as follows: (endpoint: median tumor weight (est.), dose: 18.75 mg/kg/injection, schedule: Q01DX009 (ip), vehicle: Klucel (hydroxypropylcellulose) (HPC), higher = larger tumour) 75 % of control; (endpoint: median tumor weight (est.), dose: 37.5 mg/kg/injection, schedule: Q01DX009 (ip), vehicle: Klucel (hydroxypropylcellulose) (HPC), higher = larger tumour) 54 % of control; (endpoint: median tumor weight (est.), dose: 37.5 mg/kg/injection, schedule: Q01DX009 (oral), vehicle: Klucel (hydroxypropylcellulose) (HPC), higher = larger tumour) 90 % of control; (endpoint: median tumor weight (est.), dose: 75.0 mg/kg/injection, schedule: Q01DX009 (ip), vehicle: Klucel (hydroxypropylcellulose) (HPC), higher = larger tumour) 27 % of control; (endpoint: median tumor weight (est.), dose: 75.0 mg/kg/injection, schedule: Q01DX009 (oral), vehicle: Klucel (hydroxypropylcellulose) (HPC), higher = larger tumour) 102 % of control; (endpoint: median tumor weight (est.), dose: 150.0 mg/kg/injection, schedule: Q01DX009 (oral), vehicle: Klucel (hydroxypropylcellulose) (HPC), higher = larger tumour) 102 % of control. Also, the T/C is, setting by setting: (endpoint: median tumor weight (est.), dose: 300.0 mg/kg/injection, schedule: Q01DX009 (oral), vehicle: Klucel (hydroxypropylcellulose) (HPC), higher = larger tumour) 84 % of control; (endpoint: median tumor weight (est.), dose: 600.0 mg/kg/injection, schedule: Q01DX009 (oral), vehicle: Klucel (hydroxypropylcellulose) (HPC), higher = larger tumour) 83 % of control.

Take `COC(=O)C1CCC(NC(=O)N(CCCl)N=O)CC1` (centres undefined): the T/C reads like this: (endpoint: median survival time, dose: 14.0 mg/kg/injection, schedule: Q01DX001 (ip), vehicle: saline with Tween-80, higher = longer survival) 206 % of control; (endpoint: median survival time, dose: 21.0 mg/kg/injection, schedule: Q01DX001 (ip), vehicle: saline with Tween-80, higher = longer survival) 223 % of control; (endpoint: median survival time, dose: 23.0 mg/kg/injection, schedule: Q01DX001 (ip), vehicle: saline with Tween-80, higher = longer survival) 180 % of control; (endpoint: median survival time, dose: 24.0 mg/kg/injection, schedule: Q01DX001 (ip), vehicle: saline with Tween-80, higher = longer survival) 152 % of control; (endpoint: median survival time, dose: 32.0 mg/kg/injection, schedule: Q01DX001 (ip), vehicle: saline with Tween-80, higher = longer survival) 188 % of control; (endpoint: median survival time, dose: 36.0 mg/kg/injection, schedule: Q01DX001 (ip), vehicle: saline with Tween-80, higher = longer survival) 219 % of control. For the same molecule, the T/C reads like this: (endpoint: median survival time, dose: 54.0 mg/kg/injection, schedule: Q01DX001 (ip), vehicle: saline with Tween-80, higher = longer survival) 198 % of control; (endpoint: median survival time, dose: 81.0 mg/kg/injection, schedule: Q01DX001 (ip), vehicle: saline with Tween-80, higher = longer survival) 94 % of control.

With `COc1cc(NS(C)(=O)=O)ccc1Nc1c2ccccc2nc2c(C)cccc12`, the T/C is 103 % of control (endpoint: median survival time, dose: 1.25 mg/kg/injection, schedule: Q01DX009 (ip), vehicle: Klucel (hydroxypropylcellulose) (HPC), higher = longer survival) and 121 % of control (endpoint: median survival time, dose: 5.0 mg/kg/injection, schedule: Q01DX009 (ip), vehicle: Klucel (hydroxypropylcellulose) (HPC), higher = longer survival).
